Here are results for 6 molecules from patent US9529131B2, “Polarizing plate” (NITTO DENKO CORPORATION, priority 2014, dated 2016).

The nature of one data set: log P value (octanol/water partition coefficient).
Details: not given
The term logP denotes a log measure of how a compound divides between an organic and an aqueous phase. Low values mean a more hydrophilic compound, high ones a more lipophilic compound. The molecule `C=CC(=O)OCCCCCCCCCOC(=O)C=C` [LIGHT ACRYLATE 1,9ND-A, 1,9-nonanediol diacrylate] yielded a lipophilicity (logP) of 3.68.

The same data set, now with this note: shake flask method JIS Z 7260 or ChemDraw Ultra calculation, not stated which.
In general, log P refers to the decadic logarithm of the partition coefficient of the neutral form, usually between octanol and water. Regarding `C=CC(=O)OCCCCCCCCCCOC(=O)C=C` [1,10-decanediol diacrylate], the lipophilicity (log P) is reported as 4.10.

In the case of `C=CC(=O)OCCN=C=O` [Karenz AOI], the “log P” value is reported as 1.6.

On to `C=CC(=O)OCC(C)OCC(C)OCC(C)OC(=O)C=C` (stereo not drawn) [TPGDA, tripropylene glycol diacrylate], for which the lipophilicity (log P) is on record as 1.68.

Take “bisphenol A-propylene oxide (2 mole) adduct di(meth)acrylate”: the “log P” value is given as 6.10.

On to `CSc1ccc(C(=O)C(C)(C)N2CCOCC2)cc1` [IRGACURE 907, 2-methyl-1-(4-methylthiophenyl)-2-morpholinopropan-1-one], for which the “log P” value is given as 2.09.
